Experimental data taken from US12391676B2 (H. LEE MOFFITT CANCER CENTER AND RESEARCH INSTITUTE, INC., priority 2018, dated 2025).
pIC50: −log10 of the molar value. “Also recorded” adds a separate entry of the source. Like-named read-outs stand apart in the source and are kept apart here.

Key:
[1] = system: MM1.S cells; test: Antiproliferative activity, MM1.S cells; assay type: cell-based; details: Homo sapiens; for pIC50: Table 1 comments
Summary of the method: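 MM.1S and MV4-11 AML cells were treated with compounds; c-Myc levels served as biomarker after 6-12 hr treatment, and antiproliferative activity was measured after 48-72 hr treatment.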

[2] = system: UKE1 cells; test: Drug persistence of UKE1 cells under escalating drug concentration; assay type: cell-based
Procedure: UKE1 cells were incubated with DMSO, MA9-060, fedratinib, or ruxolitinib at their respective GI20 concentrations. Cell growth was compared to DMSO. Cells were passed back to the same density after counting. Drug concentration was doubled if growth was >90% of DMSO. Fold GI20 is plotted vs time, with drug persistence represented by upward steps of the lines. The final MA9-060, ruxolitinib, and fedratinib concentrations at the end of the experiment were 0.15, 0.6 and 2.4 uM, respectively. Fedratinib-treated cells lost complete viability after about 30 days (after 3 weeks in 2.4 uM).

[3] = biological target: T1, BRD4 (Homo sapiens (Human), UniProt O60885); test: BRD4 DSF thermal shift (ΔTm); assay type: binding; details: for DSF ΔTm: Table 1
[4] = system: BaF3-JAK2-V617F-luciferase cells; details: for median survival (post-treatment start): treated for 14 days
Procedure: Vehicle control and MA9-060 were administered orally twice daily at the indicated doses to Balb/c mice injected with BaF3-JAK2-V617F-luciferase cells. Mice were imaged for luciferase activity before (Day 0) and after 7 days of treatment (Tx) (FIG. 3A) with the mean total flux from target cells shown in (FIG. 3B).

[5] = system: primary human hematopoietic progenitor cells; test: CFU-G/M colony formation of primary patient cells; assay type: cell-based; details: colonies after 2 weeks
Procedure: (§1) Colony formation was determined after 2 weeks and is indicated relative to no drug (DMSO).

[6] = system: UKE1 cells; test: Growth inhibition GI50, UKE1 cells; assay type: cell-based
[7] = biological target: JAK2 (Homo sapiens (Human), UniProt O60674); test: JAK2 IC50; assay type: biochemical; details: Table 2
Sequence of JAK2 (O60674 whole entry): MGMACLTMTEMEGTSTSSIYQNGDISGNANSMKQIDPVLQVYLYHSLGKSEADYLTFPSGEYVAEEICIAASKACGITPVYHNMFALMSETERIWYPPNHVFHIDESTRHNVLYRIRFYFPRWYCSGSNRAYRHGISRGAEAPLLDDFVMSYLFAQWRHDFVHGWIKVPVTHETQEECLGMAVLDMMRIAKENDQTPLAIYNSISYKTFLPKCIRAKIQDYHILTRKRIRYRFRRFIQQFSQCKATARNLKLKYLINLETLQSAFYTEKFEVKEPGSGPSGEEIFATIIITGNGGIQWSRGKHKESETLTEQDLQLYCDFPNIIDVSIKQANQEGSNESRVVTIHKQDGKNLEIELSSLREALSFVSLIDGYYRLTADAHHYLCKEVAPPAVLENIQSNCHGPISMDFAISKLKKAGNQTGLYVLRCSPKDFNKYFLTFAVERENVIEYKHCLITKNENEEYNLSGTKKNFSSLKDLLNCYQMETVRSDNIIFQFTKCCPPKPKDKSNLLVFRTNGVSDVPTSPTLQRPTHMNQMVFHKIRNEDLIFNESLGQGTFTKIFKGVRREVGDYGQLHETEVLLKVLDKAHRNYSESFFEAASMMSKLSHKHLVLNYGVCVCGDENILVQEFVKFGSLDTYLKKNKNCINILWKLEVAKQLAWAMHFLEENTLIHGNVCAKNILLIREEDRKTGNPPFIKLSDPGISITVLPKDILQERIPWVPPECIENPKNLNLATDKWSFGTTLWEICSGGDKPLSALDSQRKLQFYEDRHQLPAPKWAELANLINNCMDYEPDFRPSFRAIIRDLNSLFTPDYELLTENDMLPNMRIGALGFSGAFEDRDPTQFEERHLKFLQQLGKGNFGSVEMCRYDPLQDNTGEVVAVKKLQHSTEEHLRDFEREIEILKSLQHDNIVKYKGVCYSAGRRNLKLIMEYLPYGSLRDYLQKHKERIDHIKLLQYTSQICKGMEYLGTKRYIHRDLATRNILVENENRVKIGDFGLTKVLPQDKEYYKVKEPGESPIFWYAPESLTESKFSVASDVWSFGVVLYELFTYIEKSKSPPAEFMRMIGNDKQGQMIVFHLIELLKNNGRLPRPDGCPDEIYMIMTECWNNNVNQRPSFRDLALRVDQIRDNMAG

[8] = biological target: T1, BRD4; test: BRD4 IC50; assay type: binding; details: Table 2
[9] = system: PBMCs from a JAK2-V617F+ myelofibrosis patient; test: Epo-independent erythroid colony (EEC) formation of primary MPN patient cells; details: colonies after 2 weeks, relative to DMSO, compared with fedratinib and ruxolitinib
Procedure: as §1

[10] = Mouse microsome stability; assay type: in vitro ADME; details: Table 1 comments; meaning of % not stated
[11] = Human microsome stability; assay type: in vitro ADME; details: Table 1 comments; meaning of % not stated
[12] = system: BaF3-JAK2-VF cells; test: Growth inhibition GI50, BaF3-JAK2-VF cells; assay type: cell-based; details: Table 1 comments
[13] = system: SET2 cells; test: Growth inhibition GI50, SET2 cells; assay type: cell-based; details: Homo sapiens, SET-2; Table 1 comments; unit printed only for the neighbouring values in the cell
[14] = system: MV4-11 AML cells; details: background, literature; read-out: IC50, proliferation of MV4-11 AML cells; cited from earlier work
[15] = system: c-Myc; details: background, literature; cited from earlier work

Question: With `Cc1cnc(Nc2ccc(C3CCN(C)CC3)c(F)c2)nc1Nc1ccc(Cl)c(NS(=O)(=O)C(C)(C)C)c1` [MA9-060, N-(2-Chloro-5-((2-((3-fluoro-4-(1-methylpiperidin-4-yl)phenyl)amino)-5-methylpyrimidin-4-yl)amino)phenyl)-2-methylpropane-2-sulfonamide] as the compound, how does the GI50 ([1]; Table 2, read-out: GI50 (MM1S)) read?
Answer: Its GI50 is 43 nM.

Question: And the “development of drug persistence” value ([2]; UKE1 cells started at GI20, concentration doubled if growth >90% of DMSO)?
Answer: The value was “do not develop drug persistence; also recorded: could not escape a low concentration”.

Question: What about the “final drug concentration at the end of the experiment” value ([2]; UKE1 cells, drug persistence experiment) of the same compound?
Answer: Its value is 0.15 µM.

Question: And the “BRD4 DSF (ΔTm)” value ([3]; Table 2)?
Answer: The value was 14.5 °C.

Question: And the “median survival (post-treatment start)” value ([4]; 10 mg/kg orally twice daily)?
Answer: The value was 19 days.

Question: What about the “median survival (post-treatment start)” value ([4]; 25 mg/kg orally twice daily) of the same compound?
Answer: The value was 26 days.

Question: And the toxicity ([4]; 25 mg/kg twice daily orally)?
Answer: The toxicity was “No toxicity was detected”.

Question: What about the “median survival (post-treatment start)” value ([4]; 50 mg/kg orally twice daily) of the same compound?
Answer: The value was 31 days.

Question: What about the “inhibition of BaF3-JAK2-V617F-luciferase cells in Balb/c mice” value ([4]; oral, twice daily, luciferase imaging) of the same compound?
Answer: The value was “dose-dependent inhibition”.

Question: And the “effect on CFU-G/M colony growth” value [5]?
Answer: Its value is “not affected; also recorded: Little effect”.

Question: What about the GI50 ([6]; UKE1, Table 2, read-out: GI50 (UKE1)) of the same compound?
Answer: Its GI50 is 150 nM.

Question: And the pIC50 [7]?
Answer: Its pIC50 is 8.48.

Question: What about the pIC50 [8] of the same compound?
Answer: Its pIC50 is 7.59.

Question: What about the “inhibition of Epo-independent (neoplastic) erythroid colony (EEC) formation” value [9] of the same compound?
Answer: The value was “more effective than Fedratinib or Ruxolitinib; also recorded: superior to fedratinib and ruxolitinib”.

Question: For `Cc1cnc(Nc2ccc(C3CCN(C)CC3)c(F)c2)nc1Nc1ccc(Cl)c(NS(=O)(=O)C(C)(C)C)c1` [drawing 9], which Mouse microsome [10] is on record?
Answer: Its Mouse microsome is 100%.

Question: What about the Human microsome [11] of the same compound?
Answer: The Human microsome was 42.6%.

Question: And the pIC50 [1]?
Answer: The pIC50 was 7.37.

Question: And the “DSF ΔTm” value [3]?
Answer: Its value is 14.2 °C.

Question: And the GI50 [12]?
Answer: The GI50 was 28 nM.

Question: And the GI50 [13]?
Answer: Its GI50 is 54 nM.

Question: For `Cc1cnc(Nc2ccc(C3CCN(C)CC3)cc2)nc1Nc1ccc(Cl)c(NS(=O)(=O)C(C)(C)C)c1` [drawing 11], which Mouse microsome [10] is on record?
Answer: Its Mouse microsome is 81%.

Question: What about the pIC50 [1] of the same compound?
Answer: Its pIC50 is 6.96.

Question: What about the “DSF ΔTm” value [3] of the same compound?
Answer: The value was 12.3 °C.

Question: And the GI50 [12]?
Answer: The GI50 was 99 nM.

Question: And the GI50 ([6]; Table 1 comments, read-out: GI50 (UKE1 cells))?
Answer: Its GI50 is 340 nM.

Question: What about the GI50 ([6]; UKE1, Table 1 comments, read-out: GI50 (UKE1 cells)) of the same compound?
Answer: Its GI50 is 280 nM.

Question: And the GI50 [13]?
Answer: Its GI50 is 240 nM.

Question: What does the source list for `Cc1cnc(Nc2ccc(OCCN3CCCC3)cc2)nc1Nc1cccc(S(=O)(=O)NC(C)(C)C)c1` [TG101348]?
Answer: pIC50 [14]: 7.10; downregulation of c-Myc in MM.1S cells [15]: strong downregulation
